Laboratory results from patent US10233186B2, “Inhibitors of activin receptor-like kinase” (BLUEPRINT MEDICINES CORPORATION, priority 2016, dated 2019).

Assays:
[1] = target: T1, human ALK2 R206H (Homo sapiens, UniProt Q04771, R206H); test: Cell-based ALK2-R206H cell activity assay (Smad1-Ser463/Ser465 phosphorylation by AlphaLISA in HEK293-ALK2-R206H cells); settings: read-out: Cell Line (Cell Assay IC50)
T1 construct: expressed in transfected cells; host or cells: HEK293 (ATCC CRL1573), lentivirus transduction, blasticidin selection
T1 sequence (Q04771 21-509 R206H): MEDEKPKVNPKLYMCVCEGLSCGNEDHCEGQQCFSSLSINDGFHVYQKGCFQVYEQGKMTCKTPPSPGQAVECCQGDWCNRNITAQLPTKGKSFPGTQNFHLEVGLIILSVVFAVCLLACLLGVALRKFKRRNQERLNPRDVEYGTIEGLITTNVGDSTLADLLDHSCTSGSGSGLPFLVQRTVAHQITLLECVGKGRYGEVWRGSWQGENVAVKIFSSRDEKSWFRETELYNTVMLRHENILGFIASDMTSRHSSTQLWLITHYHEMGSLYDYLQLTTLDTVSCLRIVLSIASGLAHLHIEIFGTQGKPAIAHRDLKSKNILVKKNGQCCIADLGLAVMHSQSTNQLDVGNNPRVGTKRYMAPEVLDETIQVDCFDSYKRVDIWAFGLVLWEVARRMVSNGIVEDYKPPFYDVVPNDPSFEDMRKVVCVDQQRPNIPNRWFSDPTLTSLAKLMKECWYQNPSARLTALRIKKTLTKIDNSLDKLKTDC
Protocol: A HEK293 (ATCC, Cat^# CRL1573) based stable cell line expressing human ALK2 R206H cDNA (synthesized by GeneScript, Piscataway, N.J.) and a FLAG tag at the C-terminus was generated by lentivirus transduction and subsequent blasticidin (Life Technologies, Cat^#-A1113902) selection at 10 μg/ml for >2 wks. This cell line was named HEK293-ALK2-R206H.
Test compounds were first diluted to 4 mM or 0.4 mM and then serially diluted 3-fold into 10 different concentrations using DMSO. […] Two μl of the diluted compounds were then dispensed into the HEK293-ALK2-R206H cell-containing wells of the microplates in duplicates. In this way, each compound was tested in 10 doses (3-fold serial dilution with the top concentration being 10 μM or 1 μM). Liquid handling was achieved using a Bravo Automated Liquid Handling Platform (Agilent Technologies). DMSO without compound was used as a negative control. The positive control was 1 μM LDN193189, a known bone morphogenetic protein (BMP inhibitor).
The 10-point dose response curve was used to calculate the IC50 values.
Blank values in the table indicate that the particular compound was not tested in this assay.

[2] = target: T2, ALK2 R206H (GST-tagged mutant ALK2) (Homo sapiens, UniProt Q04771, R206H); test: ALK binding assay (LANTHASCREEN TR-FRET competitive binding, displacement of Kinase Tracer 178); settings: ALK2 R206H, LANTHASCREEN TR-FRET competitive binding; read-out: Binding Assay (IC50)
T2 construct: purchased Carna Bioscience or ThermoFisher 09-148 or PV6232
T2 sequence (Q04771 21-509 R206H): T1 sequence (Q04771 21-509 R206H)

Row | IC50 [1] [nM] | IC50 [2] [nM] | SMILES
1 | 100 to 500 | < 10 | C[C@@H]1CNC[C@H](c2ccc(-c3cc4c(N5CCN(C(=O)C6CC6)CC5)ccnn4c3)cc2)O1 [Compound 164]
2 | < 100 | < 10 | CCN1CC(Oc2ccc(-c3cc4c(N5CCN(C(=O)C6CC6)CC5)ccnn4c3)cc2)C1 [Compound 167]
3 | 100 to 500 | < 10 | C[C@H]1CNC[C@H](c2ccc(-c3cc4c(N5CCN(C(=O)C6CC6)CC5)ccnn4c3)cc2)O1 [Compound 169]
4 | 100 to 500 | 10 to 50 | C[C@@H]1CN(c2ccnn3cc(-c4ccc(N5CCNCC5)nc4)cc23)CCN1C(=O)C1CC1 [Compound 170]
5 | 100 to 500 | < 10 | O=C(C1CC1)N1CCN(c2ccnn3cc(-c4ccc(C5(O)CCOCC5)cc4)cc23)CC1 [Compound 172]
6 | > 500 | 10 to 50 | CCC(=O)N1CCN(c2ccnn3cc(-c4ccc(N5CCN(CC)CC5)cc4)cc23)CC1 [Compound 173]
7 | 100 to 500 | < 10 | O=C(C1CC1)N1CCN(c2ccnn3cc(-c4ccc(C5CCNCC5F)cc4)cc23)CC1 (centres unmarked) [Compound 174]
8 | < 100 | < 10 | O=C(C1CC1)N1CCN(c2ccnn3cc(-c4ccc(C5(F)CCCNC5)cc4)cc23)CC1 (centres unmarked) [Compound 177]
9 | < 100 | < 10 | O=C(C1CC1)N1CCN(c2ccnn3cc(-c4ccc([C@@]5(F)CCCNC5)cc4)cc23)CC1 [Compound 178]
10 | < 100 | < 10 | O=C(C1CC1)N1CCN(c2ccnn3cc(-c4ccc([C@]5(F)CCCNC5)cc4)cc23)CC1 [Compound 179]
11 | < 100 | < 10 | CCOC(=O)N1CCN(c2ccnn3cc(-c4ccc([C@H]5CCN(CC)C5)cc4)cc23)CC1 [Compound 181]
12 | < 100 | < 10 | CCOC(=O)N1CCN(c2ccnn3cc(-c4ccc(C5CN(C(C)C)C5)cc4)cc23)CC1 [Compound 182]
13 | < 100 | < 10 | O=C([C@H]1C[C@@H]1F)N1CCN(c2ccnn3cc(-c4ccc(N5CCNCC5)cc4)cc23)CC1 [Compound 184]
14 | < 100 | < 10 | O=C([C@H]1C[C@H]1F)N1CCN(c2ccnn3cc(-c4ccc(N5CCNCC5)cc4)cc23)CC1 [Compound 185]
15 | 100 to 500 | < 10 | O=C([C@@H]1C[C@H]1F)N1CCN(c2ccnn3cc(-c4ccc(N5CCNCC5)nc4)cc23)CC1 [Compound 186]
16 | < 100 | < 10 | CC(C)N1CCc2cc(-c3cc4c(N5CCN(C(=O)C6CC6)CC5)ccnn4c3)sc2C1 [Compound 187]
17 | < 100 | < 10 | CCNC(=O)N1CCN(c2ccnn3cc(-c4ccc([C@]5(F)CCCNC5)cc4)cc23)CC1 [Compound 188]
18 | < 100 | < 10 | CCNC(=O)N1CCN(c2ccnn3cc(-c4ccc([C@@]5(F)CCCNC5)cc4)cc23)CC1 [Compound 189]
19 | < 100 | < 10 | CC(C)N1CCc2nc(-c3cc4c(N5CCN(C(=O)C6CC6)CC5)ccnn4c3)sc2C1 [Compound 191]
20 | < 100 | < 10 | CCNC(=O)N1CCN(c2ccnn3cc(-c4cc5c(s4)CN(C(C)C)CC5)cc23)CC1 [Compound 192]
21 | < 100 | < 10 | CCNC(=O)N1CCN(c2ccnn3cc(-c4nc5c(s4)CN(C(C)C)CC5)cc23)CC1 [Compound 193]
22 | 100 to 500 | 10 to 50 | O=C(C1CC1)N1CCN(c2ccnn3cc(-c4cnn(C5CNCC(F)(F)C5)c4)cc23)CC1 (centres unmarked) [Compound 194, cyclopropyl(4-(6-(1-(5,5-difluoropiperidin-3-yl)-1H-pyrazol-4-yl)pyrrolo[1,2-b]pyridazin-4-yl)piperazin-1-yl)methanone]
23 | < 100 | < 10 | N#C[C@H]1C[C@@H]1C(=O)N1CCN(c2ccnn3cc(-c4ccc(C5CNCCO5)cc4)cc23)CC1 (some centres unmarked) [Compound 195]
24 | 100 to 500 | < 10 | O=C(C1CC1)N1CCN(c2ccnn3cc(-c4ccc(N5CCN6CCC6C5)cc4)cc23)CC1 (centres unmarked) [Compound 196]
25 | 100 to 500 | 10 to 50 | O=C(C1CC1)N1CCN(c2ccnn3cc(-c4ccc(N5CC6(CCNC6)C5)cc4)cc23)CC1 [Compound 197]

Row | IC50 [1] [nM] | IC50 [2] [nM] | SMILES
26 | < 100 | < 10 | C[C@@H]1CN(c2ccnn3cc(-c4ccc(N5CCNCC5)cc4)cc23)CCN1C(=O)CCC#N [Compound 199]
27 | < 100 | < 10 | CCN1CCC(c2ccc(-c3cc4c(N5CCN(C(=O)C6CC6)CC5)ccnn4c3)cc2)CC1 [Compound 200]
28 | < 100 | < 10 | CC(C)N1CCC(c2ccc(-c3cc4c(N5CCN(C(=O)C6CC6)CC5)ccnn4c3)cc2)C1 (centres unmarked) [Compound 201]
29 | < 100 | < 10 | CCN1CCCC(c2ccc(-c3cc4c(N5CCN(C(=O)C6CC6)CC5)ccnn4c3)cc2)C1 (centres unmarked) [Compound 202]
30 | < 100 | < 10 | CC(C)N1CC[C@@H](c2ccc(-c3cc4c(N5CCN(C(=O)C6CC6)CC5)ccnn4c3)cc2)C1 [Compound 203]
31 | < 100 | < 10 | CC(C)N1CC[C@H](c2ccc(-c3cc4c(N5CCN(C(=O)C6CC6)CC5)ccnn4c3)cc2)C1 [Compound 204]
32 | 100 to 500 | 10 to 50 | CCN1CCC(c2ccc(-c3cc4c(N5CCN(C(=O)CC6CC6)CC5)ccnn4c3)cc2)C1 (centres unmarked) [Compound 205]
33 | < 100 | < 10 | CCN1CCC[C@H](c2ccc(-c3cc4c(N5CCN(C(=O)C6CC6)CC5)ccnn4c3)cc2)C1 [Compound 207]
34 | < 100 | < 10 | CCN1CCC(c2ccc(-c3cc4c(N5CCN(C(=O)[C@H]6C[C@@H]6C)CC5)ccnn4c3)cc2)C1 (some centres unmarked) [Compound 208]
35 | < 100 | < 10 | CC(C)N1CCCC1c1ccc(-c2cc3c(N4CCN(C(=O)C5CC5)CC4)ccnn3c2)cc1 (centres unmarked) [Compound 209]
36 | < 100 | < 10 | CC(C)N1CCC[C@H]1c1ccc(-c2cc3c(N4CCN(C(=O)C5CC5)CC4)ccnn3c2)cc1 [Compound 210]
37 | < 100 | < 10 | CC(C)N1CCC[C@@H]1c1ccc(-c2cc3c(N4CCN(C(=O)C5CC5)CC4)ccnn3c2)cc1 [Compound 211]
38 | 100 to 500 | < 10 | CN1CCN(c2ccc(-c3cc4c(N5CCN(C(=O)C6CCC6)CC5)ccnn4c3)cc2)CC1 [Compound 212]
39 | < 100 | < 10 | CCN1CCN(c2ccc(-c3cc4c(N5CCN(C(=O)C6CC6)CC5)ccnn4c3)cc2)CC1 [Compound 213]
40 | 100 to 500 | 10 to 50 | CCN1CCOC(c2ccc(-c3cc4c(N5CCN(C(=O)C6CC6)CC5)ccnn4c3)cc2)C1 (centres unmarked) [Compound 214, cyclopropyl(4-(6-(4-(4-ethylmorpholin-2-yl)phenyl)pyrrolo[1,2-b]pyridazin-4-yl)piperazin-1-yl)methanone]
41 | < 100 | < 10 | CCN1CCC(Oc2ccc(-c3cc4c(N5CCN(C(=O)C6CC6)CC5)ccnn4c3)cc2)C1 (centres unmarked) [Compound 216]
42 | 100 to 500 | < 10 | CCN1CC(COc2ccc(-c3cc4c(N5CCN(C(=O)C6CC6)CC5)ccnn4c3)cc2)C1 [Compound 217]
43 | < 100 | < 10 | CC(C)N1CC(O)(c2ccc(-c3cc4c(N5CCN(C(=O)C6CC6)CC5)ccnn4c3)cc2)C1 [Compound 219]
44 | 100 to 500 | < 10 | CCN1CCN(c2ccc(-c3cc4c(N5CCN(C(=O)C6CC6)CC5)ccnn4c3)cn2)CC1 [Compound 221]
45 | < 100 | < 10 | CCN1CCN(c2ccc(-c3cc4c(N5CCN(C(=O)C6CC6)CC5)ccnn4c3)nc2)CC1 [Compound 222]
46 | 100 to 500 | 10 to 50 | CCN1CCN(c2ccc(-c3cc4c(N5CCN(C(=O)C(C)C)CC5)ccnn4c3)cc2)CC1 [Compound 223]
47 | < 100 | < 10 | CCNC(=O)N1CCN(c2ccnn3cc(-c4ccc([C@@H]5CCN(C(C)C)C5)cc4)cc23)CC1 [Compound 224]
48 | < 100 | < 10 | CCNC(=O)N1CCN(c2ccnn3cc(-c4ccc([C@H]5CCN(C(C)C)C5)cc4)cc23)CC1 [Compound 225]
49 | < 100 | < 10 | CCN1CC[C@H](c2ccc(-c3cc4c(N5CCN(C(=O)[C@H]6C[C@H]6F)CC5)ccnn4c3)cc2)C1 [Compound 226]
